Active and inactive are the calls of the source. The calls are words filed in the database; no cut-off is given here.

Among the data in ChEMBL document CHEMBL1157433, “Design and synthesis of 4-HPR derivatives for rhabdoid tumors” (Bioorg Med Chem Lett, 2008) are IC50 and Activity values, retold here.

Tested on in one assay: not listed separately
Put plainly: (§1) Cytotoxicity against human MON cells after 3 days by MTS assay. The class given is functional, cell-based. The following applies: Homo sapiens, MON, 72 h; read-out: IC50.
What is called IC50 is the concentration that gives 50% inhibition. As for `CC1=C(/C=C/C(C)=C/C=C/C(C)=C/C(=O)Nc2ccc(O)cc2O)C(C)(C)CCC1`, the IC50 was determined as 8 µM.
On the same count and under the same terms, under `CC1=C(/C=C/C(C)=C/C=C/C(C)=C/C(=O)Nc2ccc(Br)cc2)C(C)(C)CCC1` stands 150 µM.
The same measure, in the same setting: under `CC1=C(/C=C/C(C)=C/C=C/C(C)=C/C(=O)Nc2ccc(O)c(Cl)c2)C(C)(C)CCC1` stands 12.5 µM; under `CC1=C(/C=C/C(C)=C/C=C/C(C)=C/C(=O)O)C(C)(C)CCC1` [TRETINOIN], 100 µM.
The same measure, in the same setting: under `CC1=C(/C=C/C(C)=C/C=C/C(C)=C/C(=O)Nc2ccc(CCO)cc2)C(C)(C)CCC1` stands greater than 50 µM; under `CC1=C(/C=C/C(C)=C/C=C/C(C)=C/C(=O)Nc2ccc(Cl)cc2)C(C)(C)CCC1`, greater than 200 µM; under `CC1=C(/C=C/C(C)=C/C=C/C(C)=C/C(=O)Nc2ccc(O)c(F)c2)C(C)(C)CCC1`, 8 µM.
`CC1=C(/C=C/C(C)=C/C=C/C(C)=C/C(=O)Nc2ccc([N+](=O)[O-])cc2)C(C)(C)CCC1`: the IC50 is greater than 200 µM.
On to `CC1=C(/C=C/C(C)=C/C=C/C(C)=C/C(=O)Nc2ccc(O)c(I)c2)C(C)(C)CCC1`, for which the IC50 was 3 µM.
The same measure, in the same setting: under `CC1=C(/C=C/C(C)=C/C=C/C(C)=C/C(=O)Nc2ccc(CO)cc2)C(C)(C)CCC1` stands 25 µM; under `CC1=C(/C=C/C(C)=C/C=C/C(C)=C/C(=O)Nc2ccc(F)cc2)C(C)(C)CCC1`, 150 µM.

Still in this assay, the particulars now being: mon.
Regarding `COc1ccc(NC(=O)/C=C(C)/C=C/C=C(C)/C=C/C2=C(C)CCCC2(C)C)cc1`, the IC50 entry was “Not Active”.

The assay is the same for the next values; noted with them: mon; read-out: IC50.
For the compound `CC1=C(/C=C/C(C)=C/C=C/C(C)=C/C(=O)Nc2ccc(O)cc2)C(C)(C)CCC1` (stereo in doubt) [FENRETINIDE], the IC50 came out at 9 µM.
Regarding `CC1=C(/C=C/C(C)=C/C=C/C(C)=C/C(=O)Nc2ccc(O)cc2)C(C)(C)CCC1` (stereo in doubt; 5g) [FENRETINIDE], the IC50 was found to be 19 µM.

The next assay concerns MON. The description is as §1.
Conditions: not given
The class given is functional, cell-based.
Consider `CC1=C(/C=C/C(C)=C/C=C/C(C)=C/C(=O)Nc2ccc(I)cc2)C(C)(C)CCC1`, for which the result was inactive.
The same measure, in the same setting: under `CC1=C(/C=C/C(C)=C/C=C/C(C)=C/C(=O)Nc2ccc(O)c([N+](=O)[O-])c2)C(C)(C)CCC1` stands “inactive”.
